#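 Tested at 5 concentrations; 48 h exposure; 96-well plates; endpoints linearly interpolated, else capped at highest concentration. GI50 marks 50% less growth. The concentration for full growth arrest is given as TGI.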
# What was measured:
# Assay in all cases: NCI-60 cell line screen, 48 h
# 786-0 renal = test system: 786-0 renal
# A498 renal = test system: A498 renal
# A549 NSCLC = test system: A549 NSCLC
# ACHN renal = test system: ACHN renal
# BT-549 breast = test system: BT-549 breast
# CAKI-1 renal = test system: CAKI-1 renal
# CCRF-CEM leukemia = test system: CCRF-CEM leukemia
# COLO 205 colon = test system: COLO 205 colon
# DU-145 prostate = test system: DU-145 prostate
# EKVX NSCLC = test system: EKVX NSCLC
# HCC-2998 colon = test system: HCC-2998 colon
# HCT-116 colon = test system: HCT-116 colon
# HCT-15 colon = test system: HCT-15 colon
# HL-60(TB) leukemia = test system: HL-60(TB) leukemia
# HOP-62 NSCLC = test system: HOP-62 NSCLC
# HOP-92 NSCLC = test system: HOP-92 NSCLC
# HS 578T breast = test system: HS 578T breast
# HT29 colon = test system: HT29 colon
# IGROV1 ovarian = test system: IGROV1 ovarian
# K-562 leukemia = test system: K-562 leukemia
# KM12 colon = test system: KM12 colon
# LOX IMVI melanoma = test system: LOX IMVI melanoma
# M14 melanoma = test system: M14 melanoma
# MALME-3M melanoma = test system: MALME-3M melanoma
# MCF7 breast = test system: MCF7 breast
# MDA-MB-231 breast = test system: MDA-MB-231 breast
# MDA-MB-435 = test system: MDA-MB-435
# MOLT-4 leukemia = test system: MOLT-4 leukemia
# NCI-H226 lung = test system: NCI-H226 lung
# NCI-H23 lung = test system: NCI-H23 lung
# NCI-H460 lung = test system: NCI-H460 lung
# NCI/ADR-RES ovarian = test system: NCI/ADR-RES ovarian
# OVCAR-3 ovarian = test system: OVCAR-3 ovarian
# OVCAR-4 ovarian = test system: OVCAR-4 ovarian
# OVCAR-5 ovarian = test system: OVCAR-5 ovarian
# OVCAR-8 ovarian = test system: OVCAR-8 ovarian
# PC-3 prostate = test system: PC-3 prostate
# RPMI-8226 leukemia = test system: RPMI-8226 leukemia
# RXF 393 renal = test system: RXF 393 renal
# SF-268 CNS = test system: SF-268 CNS
# SF-295 CNS = test system: SF-295 CNS
# SF-539 CNS = test system: SF-539 CNS
# SK-MEL-2 melanoma = test system: SK-MEL-2 melanoma
# SK-MEL-28 melanoma = test system: SK-MEL-28 melanoma
# SK-MEL-5 melanoma = test system: SK-MEL-5 melanoma
# SK-OV-3 ovarian = test system: SK-OV-3 ovarian
# SN12C renal = test system: SN12C renal
# SNB-19 CNS = test system: SNB-19 CNS
# SNB-75 CNS = test system: SNB-75 CNS
# SR leukemia = test system: SR leukemia
# SW-620 colon = test system: SW-620 colon
# T-47D breast = test system: T-47D breast
# TK-10 renal = test system: TK-10 renal
# U251 CNS = test system: U251 CNS
# UACC-257 melanoma = test system: UACC-257 melanoma
# UACC-62 melanoma = test system: UACC-62 melanoma
# UO-31 renal = test system: UO-31 renal
compound,measurement,setting,value
C=CCc1cccc(/C=N/NC(=O)CN2CCN(Cc3ccccc3)CC2)c1O,GI50,786-0 renal,2.04 µM
same,TGI,786-0 renal,12.1 µM
same,GI50,A498 renal,4.86 µM
same,TGI,A498 renal,18.2 µM
same,GI50,A549 NSCLC,3.34 µM
same,TGI,A549 NSCLC,16.4 µM
same,GI50,ACHN renal,1.54 µM
same,TGI,ACHN renal,12 µM
same,GI50,BT-549 breast,2.84 µM
same,TGI,BT-549 breast,15.3 µM
same,GI50,CAKI-1 renal,0.841 µM
same,TGI,CAKI-1 renal,2.12 µM
same,GI50,CCRF-CEM leukemia,0.656 µM
same,TGI,CCRF-CEM leukemia,7.78 µM
same,GI50,COLO 205 colon,2.22 µM
same,TGI,COLO 205 colon,13.9 µM
same,GI50,DU-145 prostate,1.79 µM
same,TGI,DU-145 prostate,13.4 µM
same,GI50,EKVX NSCLC,2.49 µM
same,TGI,EKVX NSCLC,12.8 µM
same,GI50,HCC-2998 colon,2.74 µM
same,TGI,HCC-2998 colon,17.1 µM
same,GI50,HCT-116 colon,1.71 µM
same,TGI,HCT-116 colon,13.8 µM
same,GI50,HCT-15 colon,0.693 µM
same,TGI,HCT-15 colon,15.1 µM
same,GI50,HL-60(TB) leukemia,1.6 µM
same,TGI,HL-60(TB) leukemia,4.79 µM
same,GI50,HOP-62 NSCLC,2.25 µM
same,TGI,HOP-62 NSCLC,13.8 µM
same,GI50,HOP-92 NSCLC,1.28 µM
same,TGI,HOP-92 NSCLC,6.22 µM
same,GI50,HS 578T breast,5.63 µM
same,TGI,HS 578T breast,23.1 µM
same,GI50,HT29 colon,3.24 µM
same,TGI,HT29 colon,13.7 µM
same,GI50,IGROV1 ovarian,0.483 µM
same,TGI,IGROV1 ovarian,3.13 µM
same,GI50,K-562 leukemia,1.87 µM
same,TGI,K-562 leukemia,11 µM
same,GI50,KM12 colon,2.56 µM
same,TGI,KM12 colon,15 µM
same,GI50,LOX IMVI melanoma,1.05 µM
same,TGI,LOX IMVI melanoma,6.59 µM
same,GI50,M14 melanoma,1.84 µM
same,TGI,M14 melanoma,13.3 µM
same,GI50,MALME-3M melanoma,5.79 µM
same,TGI,MALME-3M melanoma,19.8 µM
same,GI50,MCF7 breast,2.52 µM
same,TGI,MCF7 breast,12.5 µM
same,GI50,MDA-MB-231 breast,2.49 µM
same,TGI,MDA-MB-231 breast,15.5 µM
same,GI50,MDA-MB-435,2.86 µM
same,TGI,MDA-MB-435,13.3 µM
same,GI50,MOLT-4 leukemia,1.12 µM
same,TGI,MOLT-4 leukemia,5.64 µM
same,GI50,NCI-H226 lung,2.64 µM
same,TGI,NCI-H226 lung,14 µM
same,GI50,NCI-H23 lung,3.05 µM
same,TGI,NCI-H23 lung,16.5 µM
same,GI50,NCI-H460 lung,1.41 µM
same,TGI,NCI-H460 lung,11.6 µM
same,GI50,NCI/ADR-RES ovarian,0.92 µM
same,TGI,NCI/ADR-RES ovarian,11.9 µM
same,GI50,OVCAR-3 ovarian,0.808 µM
same,TGI,OVCAR-3 ovarian,6.32 µM
same,GI50,OVCAR-4 ovarian,1.45 µM
same,TGI,OVCAR-4 ovarian,11.8 µM
same,GI50,OVCAR-5 ovarian,4.46 µM
same,TGI,OVCAR-5 ovarian,18.1 µM
same,GI50,OVCAR-8 ovarian,2.08 µM
same,TGI,OVCAR-8 ovarian,17.6 µM
same,GI50,PC-3 prostate,3.45 µM
same,TGI,PC-3 prostate,16.1 µM
same,GI50,RPMI-8226 leukemia,1.47 µM
same,TGI,RPMI-8226 leukemia,12.7 µM
same,GI50,RXF 393 renal,0.638 µM
same,TGI,RXF 393 renal,16.1 µM
same,GI50,SF-268 CNS,1.99 µM
same,TGI,SF-268 CNS,16.4 µM
same,GI50,SF-295 CNS,0.649 µM
same,TGI,SF-295 CNS,4.04 µM
same,GI50,SF-539 CNS,2.32 µM
same,TGI,SF-539 CNS,9.49 µM
same,GI50,SK-MEL-2 melanoma,2.31 µM
same,TGI,SK-MEL-2 melanoma,11.5 µM
same,GI50,SK-MEL-28 melanoma,2.43 µM
same,TGI,SK-MEL-28 melanoma,15.5 µM
same,GI50,SK-MEL-5 melanoma,1.26 µM
same,TGI,SK-MEL-5 melanoma,3.53 µM
same,GI50,SK-OV-3 ovarian,2.88 µM
same,TGI,SK-OV-3 ovarian,17.8 µM
same,GI50,SN12C renal,4.4 µM
same,TGI,SN12C renal,18.9 µM
same,GI50,SNB-19 CNS,5.36 µM
same,TGI,SNB-19 CNS,20.1 µM
same,GI50,SNB-75 CNS,2.57 µM
same,TGI,SNB-75 CNS,12.9 µM
same,GI50,SR leukemia,0.772 µM
same,TGI,SR leukemia,4.24 µM
same,GI50,SW-620 colon,3.8 µM
same,TGI,SW-620 colon,17.1 µM
same,GI50,T-47D breast,2.32 µM
same,TGI,T-47D breast,14.9 µM
same,GI50,TK-10 renal,0.925 µM
same,TGI,TK-10 renal,15.1 µM
same,GI50,U251 CNS,2.13 µM
same,TGI,U251 CNS,14.9 µM
same,GI50,UACC-257 melanoma,2.46 µM
same,TGI,UACC-257 melanoma,13.8 µM
same,GI50,UACC-62 melanoma,3.28 µM
same,TGI,UACC-62 melanoma,12.8 µM
same,GI50,UO-31 renal,1.15 µM
same,TGI,UO-31 renal,7.38 µM
